Results taken from US20080139664A1, “ANTI-GLYCATION AGENTS FOR PREVENTING AGE-, DIABETES-, AND SMOKING-RELATED COMPLICATIONS” (NATIONAL RESEARCH COUNCIL OF CANADA, priority 2001, published 2008).
One block for each compound: values may come before it.

Experiments:
[1] = test system: bovine serum albumin (BSA)
lysozyme = assay: ESI-MS of lysozyme glycoforms after incubation with D-ribose; conditions: 37° C., 5 days; for Peak area as % of total area of all glycoforms, 14,569: lysozyme + 2D-ribose − 2H2O (14,569 Da); for Peak area as % of total area of all glycoforms, 14,551: lysozyme + 2D-ribose − 3H2O (14,551 Da); for Peak area as % of total area of all glycoforms, 14,533: lysozyme + 2D-ribose − 5H2O (14,533 Da); for Peak area as % of total area of all glycoforms, 14,515: lysozyme + 2D-ribose − 6H2O (14,515 Da); for Peak area as % of total area of all glycoforms, 14,419: lysozyme + D-ribose − 2H2O (14,419 Da); for Peak area as % of total area of all glycoforms, 14,401: lysozyme + D-ribose − 3H2O (14,401 Da); for Peak area as % of total area of all glycoforms, 14,437: lysozyme + D-ribose − H2O (14,437 Da); for Peak area as % of total area of all glycoforms, 14,496: lysozyme + D-ribose − H2O with one carboxymethylated Lys residue (14,496 Da); for Peak area as % of total area of all glycoforms, 14,364: lysozyme with one carboxymethylated Lys residue (14,364 Da); for Peak area as % of total area of all glycoforms, 14,305: unmodified lysozyme (14,305 Da);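 as to all read-outs here: lysozyme incubated with D-ribose, with or without anti-glycation agents, then separated by reversed-phase HPLC and analysed by electrospray mass spectrometry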
Method: The effect of anti-glycation agents on the accumulation of glycated forms (glycoforms) of protein was evaluated by using electrospray mass spectrometry (ESI-MS). As the molecular mass of BSA was too large to monitor the small mass changes of its glycoforms, lysozyme was incubated with D-ribose and anti-glycants. Lysozyme and its glycoforms were isolated by RP-HPLC and analyzed by mass spectrometry.
Samples of lysozyme (0.756 mM; 4.54 mM of Lys residues) and D-ribose (50 mM) were incubated in the presence and absence of the selected anti-glycation agents at 37° C. for 5 days and subjected to electrospray mass spectrometry (ESI-MS) in order to characterize the protein intermediates as well as carboxymethylated lysozyme. Prior to MS measurements, the proteins were isolated by reversed phase-HPLC and were semi-dried by freeze drying.

Compound: NC(=O)NO [Hydroxyurea]
IC50 [1]: > 4000 µM

Compound: CN1C(C(=O)Nc2ccccn2)=C(O)c2ccccc2S1(=O)=O [Piroxicam]
IC50 [1]: 730 µM

Compound: COC(=O)C1=C(C)NC(C)=C(C(=O)OCCN(C)Cc2ccccc2)C1c1cccc([N+](=O)[O-])c1 (centres unmarked) [Nicardipine]
IC50 [1]: > 4000 µM

Compound: Cc1ncc([N+](=O)[O-])n1C [Dimetridazole]
IC50 [1]: 460 µM

Compound: COc1ccc2c(c1)c(CC(=O)O)c(C)n2C(=O)c1ccc(Cl)cc1 [Indomethacin]
Peak area as % of total area of all glycoforms, 14,569 (lysozyme): 3.5% | Peak area as % of total area of all glycoforms, 14,551 (lysozyme): 3.3% | Peak area as % of total area of all glycoforms, 14,533 (lysozyme): 1.6% | Peak area as % of total area of all glycoforms, 14,515 (lysozyme): 0.0% | Peak area as % of total area of all glycoforms, 14,419 (lysozyme): 7.5% | Peak area as % of total area of all glycoforms, 14,401 (lysozyme): 0.5% | Peak area as % of total area of all glycoforms, 14,437 (lysozyme): 18.6% | Peak area as % of total area of all glycoforms, 14,496 (lysozyme): 0.0% | Peak area as % of total area of all glycoforms, 14,364 (lysozyme): 5.1% | Peak area as % of total area of all glycoforms, 14,305 (lysozyme): 58.0%

Compound: O=C1CN(/N=C/c2ccc([N+](=O)[O-])o2)C(=O)N1 [Nitrofurantoin]
IC50 [1]: 44 µM | maximum percentage of the inhibition [1]: 40%)

Compound: Cc1c(C(N)=O)cc([N+](=O)[O-])cc1[N+](=O)[O-] [Dinitolmide]
IC50 [1]: 340 µM | Peak area as % of total area of all glycoforms, 14,569 (lysozyme): 4.9% | Peak area as % of total area of all glycoforms, 14,551 (lysozyme): 3.6% | Peak area as % of total area of all glycoforms, 14,533 (lysozyme): 2.6% | Peak area as % of total area of all glycoforms, 14,515 (lysozyme): 1.3% | Peak area as % of total area of all glycoforms, 14,419 (lysozyme): 7.4% | Peak area as % of total area of all glycoforms, 14,401 (lysozyme): 0.0% | Peak area as % of total area of all glycoforms, 14,437 (lysozyme): 22.6% | Peak area as % of total area of all glycoforms, 14,496 (lysozyme): 0.0% | Peak area as % of total area of all glycoforms, 14,364 (lysozyme): 3.0% | Peak area as % of total area of all glycoforms, 14,305 (lysozyme): 51.7%

Compound: Oc1c(Br)cc(Br)c2cccnc12 [Broxyquinoline]
IC50 [1]: 390 µM | Peak area as % of total area of all glycoforms, 14,569 (lysozyme): 5.7% | Peak area as % of total area of all glycoforms, 14,551 (lysozyme): 4.7% | Peak area as % of total area of all glycoforms, 14,533 (lysozyme): 3.2% | Peak area as % of total area of all glycoforms, 14,515 (lysozyme): 1.7% | Peak area as % of total area of all glycoforms, 14,419 (lysozyme): 7.2% | Peak area as % of total area of all glycoforms, 14,401 (lysozyme): 4.9% | Peak area as % of total area of all glycoforms, 14,437 (lysozyme): 21.0% | Peak area as % of total area of all glycoforms, 14,496 (lysozyme): 1.5% | Peak area as % of total area of all glycoforms, 14,364 (lysozyme): 2.5% | Peak area as % of total area of all glycoforms, 14,305 (lysozyme): 42.2%

Compound: Cn1cnc([N+](=O)[O-])c1Sc1ncnc2nc[nH]c12 [Azathioprine]
IC50 [1]: 400 µM

Compound: O=c1c(O)c(-c2cc(O)c(O)c(O)c2)oc2cc(O)cc(O)c12 [Myricetin]
IC50 [1]: 54 µM | maximum percentage of the inhibition [1]: 64%) | Peak area as % of total area of all glycoforms, 14,569 (lysozyme): 0.0% | Peak area as % of total area of all glycoforms, 14,551 (lysozyme): 0.0% | Peak area as % of total area of all glycoforms, 14,533 (lysozyme): 0.0% | Peak area as % of total area of all glycoforms, 14,515 (lysozyme): 0.0% | Peak area as % of total area of all glycoforms, 14,419 (lysozyme): 1.8% | Peak area as % of total area of all glycoforms, 14,401 (lysozyme): 0.0% | Peak area as % of total area of all glycoforms, 14,437 (lysozyme): 17.7% | Peak area as % of total area of all glycoforms, 14,496 (lysozyme): 0.0% | Peak area as % of total area of all glycoforms, 14,364 (lysozyme): 1.6% | Peak area as % of total area of all glycoforms, 14,305 (lysozyme): 78.9%

Compound: CNCC(O)c1ccc(O)cc1 (centres unmarked) [Synephrine]
IC50 [1]: > 4000 µM

Compound: C[C@H]1c2cccc(O)c2C(=O)C2=C(O)[C@]3(O)C(=O)C(C(N)=O)=C(O)[C@@H](N(C)C)[C@@H]3[C@@H](O)[C@@H]21 [Doxycycline]
IC50 [1]: 33 µM

Compound: CN(C)c1ccc(O)c2c1C[C@H]1C[C@H]3[C@H](N(C)C)C(O)=C(C(N)=O)C(=O)[C@@]3(O)C(O)=C1C2=O [Minocycline]
IC50 [1]: 46 µM

Compound: CCS(=O)(=O)CCn1c([N+](=O)[O-])cnc1C [Tinidazole]
IC50 [1]: 700 µM

Compound: CNC(=C[N+](=O)[O-])NCCSCc1ccc(CN(C)C)o1 [Ranitidine]
IC50 [1]: 1100 µM

More lines, main results first:

IC50 [1]: 1300 µM
Compound: O=C(N[C@H](CO)[C@H](O)c1ccc([N+](=O)[O-])cc1)C(Cl)Cl [Chloramphenicol]

IC50 [1]: 250 µM
Compound: Oc1ccc(O)cc1 [Hydroquinone]

IC50 [1]: 2100 µM
Compound: COC(=O)c1ccc(O)c(N)c1 [Orthoform]

IC50 [1]: 320 µM
Compound: CC(C)=CCC1=C(O)C(=O)c2ccccc2C1=O [Lapachol]

IC50 [1]: 130 µM
Compound: O=c1cc(-c2ccc(O)cc2)oc2cc(O)cc(O)c12 [Apigenin]

IC50 [1]: > 4000 µM
Compound: CC(C)(C)NCC(O)c1cc(O)cc(O)c1 (centres unmarked) [Terbutaline]

IC50 [1]: 1100 µM
Compound: COc1cc(/C=C/C(=O)CC(=O)/C=C/c2ccc(O)c(OC)c2)ccc1O [Curcumin]

IC50 [1]: > 4000 µM
Compound: O=c1c(-c2ccc(O)cc2)coc2cc(O)ccc12 [Daidzein]

IC50 [1]: 2100 µM
Compound: O=c1cc(-c2ccccc2)oc2cc(O)cc(O)c12 [Chrysin]

IC50 [1]: 1400 µM
Compound: Oc1c(Cl)cc(Cl)c2cccnc12 [Chloroxine]

IC50 [1]: > 4000 µM
Compound: CC(C(O)c1ccc(O)cc1)N1CCC(Cc2ccccc2)CC1 (centres unmarked) [Ifenprodil]

IC50 [1]: 220 µM
Compound: O=C1C[C@@H](c2ccc(O)cc2)Oc2cc(O)cc(O)c21 [Naringenin]
Peak area as % of total area of all glycoforms, 14,569 (lysozyme): 4.9% | Peak area as % of total area of all glycoforms, 14,551 (lysozyme): 3.1% | Peak area as % of total area of all glycoforms, 14,533 (lysozyme): 1.8% | Peak area as % of total area of all glycoforms, 14,515 (lysozyme): 0.0% | Peak area as % of total area of all glycoforms, 14,419 (lysozyme): 7.5% | Peak area as % of total area of all glycoforms, 14,401 (lysozyme): 0.0% | Peak area as % of total area of all glycoforms, 14,437 (lysozyme): 24.4% | Peak area as % of total area of all glycoforms, 14,496 (lysozyme): 0.0% | Peak area as % of total area of all glycoforms, 14,364 (lysozyme): 0.1% | Peak area as % of total area of all glycoforms, 14,305 (lysozyme): 56.8%

IC50 [1]: 3000 µM
Compound: Cc1cc(O)c2c(c1)C(=O)c1cc(O)cc(O)c1C2=O [Emodin]

IC50 [1]: 1300 µM
Compound: CC(C)C(=O)Nc1ccc([N+](=O)[O-])c(C(F)(F)F)c1 [Flutamide]
